From ChEMBL document CHEMBL1133276, “Effect of C2-exo unsaturation on the cytotoxicity and DNA-binding reactivity of pyrrolo[2,1-c][1,4]benzodiazepines” (2000)

Tests used:
CH1 [1] = assay: In vitro cytotoxicity of compound was determined against CH1 cell lines at 37 degree C for 96 hr; format: functional, Homo sapiens
[2] = Resistance factor of compound was determined from cisplatin resistant CH1 cell lines to that of CH1 cell lines; format: functional
Nucleic Acid [3] = assay: Change in thermal denaturation temperature determined from calf thymus DNA after incubation at 37 degree celsius for 4 hours; format: functional; settings: Bos taurus
SK-OV-3 = assay: In vitro cytotoxicity of compound was determined against SKOV-3 cell lines at 37 degree C for 96 hr; format: functional, Homo sapiens
A2780 [4] = assay: In vitro cytotoxicity of compound was determined against A2780 cell lines (cisplatin resistant) at 37 degree C for 96 hr; format: functional, Homo sapiens
CH1 [5] = assay: In vitro cytotoxicity of compound was determined against CH1 (cisplatin resistant) cell lines at 37 degree C for 96 hr; format: functional, Homo sapiens
Nucleic Acid [6] = assay: Change in thermal denaturation temperature determined from calf thymus DNA after incubation at 37 degree celsius for 0 hours; format: functional; settings: Bos taurus
A2780 [7] = assay: In vitro cytotoxicity of compound was determined against A2780 cell lines at 37 degree C for 96 hr; format: functional, Homo sapiens
[8] = Resistance factor of compound was determined from cisplatin resistant A2780 cell lines to that of A2780 cell lines; format: functional
Nucleic Acid [9] = assay: Change in thermal denaturation temperature determined from calf thymus DNA after incubation at 37 degree celsius for 18 hours; format: functional; settings: Bos taurus

Compound C/C=C1/C[C@H]2C=Nc3cc(O)c(OC)cc3C(=O)N2C1 has a Cytotoxicity (CH1 [1]) of 0.00013 µM.

With COc1cc2c(cc1OC)C(=O)N1CCC[C@H]1C=N2 the Resistance factor [2] was 1.3, the ΔTm (Nucleic Acid [3]) was 0.43 °C and the Cytotoxicity (SK-OV-3) was 1.7 µM. The Cytotoxicity (A2780 [4]) was 0.155 µM, the Cytotoxicity (CH1 [5]) was 0.11 µM and the ΔTm (Nucleic Acid [6]) was 0.24 °C. It also gave a Cytotoxicity (A2780 [7]) of 0.064 µM, a Resistance factor [8] of 2.4 and a Cytotoxicity (CH1 [1]) of 0.082 µM. The ΔTm (Nucleic Acid [9]) was 0.57 °C.

C=C1C[C@H]2C=Nc3cc(OCc4ccccc4)c(OC)cc3C(=O)N2C1 showed a Resistance factor [2] of 4.8, a ΔTm (Nucleic Acid [3]) of 1.22 °C and a Cytotoxicity (SK-OV-3) of 0.35 µM. For the same compound, the Cytotoxicity (A2780 [4]) was 0.2 µM, the Cytotoxicity (CH1 [5]) was 0.082 µM and the ΔTm (Nucleic Acid [6]) was 1.01 °C. For the same compound, the Cytotoxicity (A2780 [7]) was 0.029 µM, the Resistance factor [8] was 6.9 and the Cytotoxicity (CH1 [1]) was 0.017 µM. The ΔTm (Nucleic Acid [9]) was 1.33 °C.

In the case of C=C1C[C@H]2C=Nc3cc(OC)c(OC)cc3C(=O)N2C1, the Resistance factor [2] is reported as 1.3, the ΔTm (Nucleic Acid [3]) is reported as 1.95 °C and the Cytotoxicity (SK-OV-3) is reported as 0.39 µM. The Cytotoxicity (A2780 [4]) was 0.36 µM, the Cytotoxicity (CH1 [5]) was 0.084 µM and the ΔTm (Nucleic Acid [6]) was 1.46 °C. The Cytotoxicity (A2780 [7]) was 0.15 µM, the Resistance factor [8] was 2.4 and the Cytotoxicity (CH1 [1]) was 0.066 µM. It also gave a ΔTm (Nucleic Acid [9]) of 2.38 °C.

In the case of C/C=C1/C[C@H]2C=Nc3cc(OCc4ccccc4)c(OC)cc3C(=O)N2C1, the Resistance factor [2] is reported as 1, the ΔTm (Nucleic Acid [3]) is reported as 1.65 °C and the Cytotoxicity (SK-OV-3) is reported as 0.081 µM. For the same compound, the Cytotoxicity (A2780 [4]) was 0.066 µM, the Cytotoxicity (CH1 [5]) was 0.031 µM and the ΔTm (Nucleic Acid [6]) was 0.92 °C. It also gave a Cytotoxicity (A2780 [7]) of 0.034 µM, a Resistance factor [8] of 1.9 and a Cytotoxicity (CH1 [1]) of 0.031 µM. It also gave a ΔTm (Nucleic Acid [9]) of 2.34 °C.

Compound C/C=C1/C[C@H]2C=Nc3cc(OC)c(OC)cc3C(=O)N2C1 has a Resistance factor [2] of 1.6, a ΔTm (Nucleic Acid [3]) of 1.47 °C and a Cytotoxicity (SK-OV-3) of 0.135 µM. It also gave a Cytotoxicity (A2780 [4]) of 0.14 µM, a Cytotoxicity (CH1 [5]) of 0.056 µM and a ΔTm (Nucleic Acid [6]) of 0.84 °C. The Cytotoxicity (A2780 [7]) was 0.071 µM, the Resistance factor [8] was 1.9 and the Cytotoxicity (CH1 [1]) was 0.035 µM. The ΔTm (Nucleic Acid [9]) was 1.86 °C.

With COc1cc2c(cc1OCc1ccccc1)N=C[C@@H]1CCCN1C2=O the Resistance factor [2] was 1, the ΔTm (Nucleic Acid [3]) was 0.4 °C and the Cytotoxicity (SK-OV-3) was 0.46 µM. For the same compound, the Cytotoxicity (A2780 [4]) was 0.48 µM, the Cytotoxicity (CH1 [5]) was 0.145 µM and the ΔTm (Nucleic Acid [6]) was 0.2 °C. The Cytotoxicity (A2780 [7]) was 0.17 µM, the Resistance factor [8] was 2.8 and the Cytotoxicity (CH1 [1]) was 0.145 µM. It also gave a ΔTm (Nucleic Acid [9]) of 0.4 °C.
